The source of these data is US20030162692A1, “Follicle stimulating hormone stimulated genes and uses thereof” (priority 2000, published 2003).

In the test the test system is Y-1 (ATCC Accession No. CCL 79) cells. Put plainly: GEM (Gene Expression Microarray) expression profile of treated vs control Y1 cells, Incyte mouse cDNA array. Type of test: cell-based. Conditions: 16 hours; for number of common genes upregulated by FSH, 024 & forskolin: Y1 cells, FSH 10^-9 M, 024 1 uM, Forskolin 1 uM. The protocol: A mouse cDNA array from Incyte, Inc. was used to analyze the expression profile of Y-1 (ATCC Accession No. CCL 79) cells. This transcriptional profile analysis led to the identification of the FSH or FSH Mimetic stimulated genes of the invention.
Y1 cells were incubated with Ham's F-10 Nutrient Mixture Media supplemented with glutamine (1%), G418 geneyticin (80 ug/ml), penicillin-streptomycin (1%), fetal horse serum (15%), and fetal bovine serum (2.5%) and grown to confluency. Confluent cells were then exposed to FSH at 10^-9 M (See Table 1) or FSH Mimetic 024 at 1 uM (see Table 3), Forskolin at 1 uM (See Table 4) and all three agents (i.e., FSH at 10^−9 M, FSH Mimetic 024 at 1 uM and Forskolin at 1 uM—See Table 2) for 16 hours. Total RNA was isolated from control or treated cells with ULTRASPEC™ RNA from Biotech Laboratories, Inc. All media and supplements were obtained from Gibco BRL Life Technologies.
The GEM (Gene Expression Microarray) technology uses the following steps to discover differences in gene expression between two messenger RNA (mRNA) samples. Small samples of cDNA were deposited on a glass surface and bonded to the glass. Subsequently, large portions from one half of the DNA's double strands were removed in order to activate the individual elements of the array, preparing them to react and bind to their uniquely matched DNA counterparts in the cells being tested.
Two mRNA samples were prepared and color labeled, since the GEM technology uses a color coding technique to discover the differences in gene expression between two mRNA samples. […]
The two fluorescent probe samples were simultaneously applied to a single microarray, where they competitively react with the arrayed cDNA molecules. […] The intensity of the fluorescence at each array element is proportional to the expression level of that gene in the sample. […] The ratio of the two fluorescent intensities provided a quantitative measurement of the relative gene expression level in the two cell samples. […]

Regarding Follicle Stimulating Hormone [FSH], the “number of common genes upregulated by FSH, 024 & forskolin” value is on record as 64 common genes upregulated by FSH, 024 & forskolin. In addition, the “number of genes regulated in Y1 cells” value (FSH at 10^-9 M) is recorded as “FSH regulats 189 genes in Y1 cells”.
Turning to `C=C[C@@]1(C)CC(=O)[C@]2(O)[C@@]3(C)[C@@H](O)CCC(C)(C)[C@@H]3[C@H](O)[C@H](OC(C)=O)[C@@]2(C)O1` [Forskolin, reference compound], the “number of common genes upregulated by FSH, 024 & forskolin” value is given as 64 common genes upregulated by FSH, 024 & forskolin.
